Results from ChEMBL document CHEMBL1148041, “New fatty acid esters of drimane sesquiterpenes from Lactarius uvidus” (J Nat Prod, 1994).

Key:
HL-60 [1] = experiment: Cytotoxicity against human HL60 cells assessed as inhibition of [3H]thymidine incorporation at 50 gamma/ml; format: functional
Artemia salina = experiment: Toxicity in Artemia salina; format: organism-based; settings: in vivo
HL-60 [2] = experiment: Cytotoxicity against human HL60 cells assessed as inhibition of [3H]thymidine incorporation at 0.05 gamma/ml; format: functional

Compound | inhibition (INH) (HL-60 [1]) | LC50 (Artemia salina) | inhibition (INH) (HL-60 [2])
CC1(C)CCC[C@]2(C)[C@@H](CO)[C@@]3(C)O[C@H]3C(=O)[C@@H]12 [UVIDIN A] | 97% | 48.8 ppm | 21%
CC1(C)[C@@H](O)CC[C@]2(C)[C@@H](CO)[C@@]3(C)O[C@H]3C(=O)[C@@H]12 [UVIDIN B] | 61% | – | 0%
